# Data reported in patent US10071077B2, “Use of enoximone in the treatment of atopic immune-related disorders, in pharmaceutical composition as well as in pharmaceutical preparation” (BREAKTHROUGH MEDICAL RESEARCH B.V., priority 2014, dated 2018).
# What was measured:
# [1] = tested on: Human PBMCs stimulated with tetanus toxoid (CD4 T-cells); format: cell-based
# [2] = tested on: HDM driven allergic airway inflammation; assay: House dust mite (HDM) allergic airway inflammation model, treatment strategy 1 (allergy induction); format: in vivo, C57bl/6 mice
# Experimental: (§1) To induce airway inflammation, mice were anaesthetized with isofluorane and treated intratracheally (i.t.) with 1-10 μg house dust mite (HDM; Greer Laboratories) allergen extract in 80 μL phosphate buffered saline (PBS) on day 0 or using PBS only. Ten days later, anesthetized mice were challenged with 1-10 μg HDM in 50 μL PBS intranasally (i.n.) for 5 consecutive days. Mice were sacrificed 24 hr after last challenge and broncho alveolar lavage was performed by flushing the lungs 3 times with 1 ml PBS containing Ethylenediaminetetraacetic acid (EDTA, Sigma-Aldrich).
# Different treatment modalities were testes i.e. route and dose. Here we tested the oral versus intratracheal route (FIG. 1) and PBS versus enoximone in a HDM driven allergy model. Enoximone was precipitated from Perfan®. The precipitant was admitted with HDM solution and used as a suspension for intratracheal treatment doses 25 μg and 250 μg or it was used as a suspension admitted in PBS for oral treatment doses 250 μg or 2.5 mg. Mice underwent enoximone treatment only during challenge. Sensitization was performed with 1 μg HDM and challenge with 2.5-5 μg HDM. Twenty-four hours after the last challenge measurements were performed.
# Optimal dose of 25 μg enoximone versus diluent (FIG. 5) was admitted with 5 μg HDM solution and used for intratracheal treatment or diluent (10% ethanol+40% glycerol+50% MQ) admitted with 5 μg HDM solution. Controls were treated with enoximone 25 μg admitted with PBS or diluent admitted with PBS. Mice underwent enoximone treatment only during challenge.
# (A) Experimental HDM asthma design showing intratracheal sensitization (s) of 1 μg HDM or PBS as control and five intra-nasal challenges (c) with 2.5-5 μg HDM. (B) Quantification of flow cytometric analyses of the indicated populations of eosinophils in bronchoalveolar lavage (BAL) of PBS treated mice (black bars) and enoximone treated mice (white and greyscale bars). Results are expressed as means±SEM. (C) Quantification of flow cytometric analyses of ILC2 numbers in BAL. Results are expressed as means±SEM. Results represent data of one out of 2 experiments with 3-8 animals per group. Statistical evaluations were performed only between different treatments of groups. *p<0.05, **p<0.01).
# (§2) (A) Experimental HDM asthma design showing intratracheal sensitization (s) of 1 μg HDM or PBS as control and intra nasal challenge (c) with 5 μg HDM. (B) Quantification of flow cytometric analyses of eosinophils in BAL of PBS treated mice (black bars) and enoximone treated mice (light grey bars). Results are expressed as means±SEM. (C) Quantification of flow cytometric analyses of neutrophils and (D) ILC2s in BAL. Results are expressed as means±SEM. n=4-8 animals per group. Statistical evaluations were performed only between different treatments of groups (*p<0.05 or **p<0.01).
# [3] = tested on: HDM driven allergic airway inflammation; assay: as above; format: in vivo, C57bl/6 mice; settings: orally (2.5 and 0.25 μg), treatment during challenge, FIG. 5B
# [4] = tested on: established HDM allergic airway inflammation; assay: Established HDM allergy model, treatment strategy 2; format: in vivo, C57bl/6 mice; settings: 25 μg enoximone admixed with 5 μg HDM
# Experimental: as §1
# C57bl/6 mice were sensitized with 10 μg HDM on day 0 and challenged with 5 μg HDM for 5 days on day 10-14. Then mice were treated with 5 μg HDM admixed with 25 μg enoximone or diluent for 5 days on days 15-19. 24 hr after last challenge measurements were performed.
# Next, we attempted to determine whether enoximone is potent enough to suppress allergic inflammation when asthma is already fully established. Animals were challenged with an additional session of 5 challenges with HDM mimicking the situation in asthma patients. Asthma mice and PBS controls were then challenged again on five successive days by instilling a droplet of 50 μl PBS (PBS PBS dil), or HDM (5 μg) in 50 μl PBS (HDM HDM dil) or HDM (5 μg) in 50 μl PBS admixed with enoximone (25 μg) (HDM HDM enox)(FIG. 7A).
# as §2, with “[…]” for “1 μg”, “HDM followed by challenge and treatment (ct).” for “HDM.”, “ILC2s, (D) CD3” for “neutrophils”, “(E) macrophages” for “(D) ILC2s”, “groups.” for “groups”
# [5] = tested on: HDM allergic airway inflammation; assay: HDM asthma model, lower enoximone treatment frequency; format: in vivo, mice
# Experimental: as §1
# Next we investigate if it is possible to lower the active enoximone treatment frequency when given it admixed to the HDM challenge solution (FIG. 2A). We compare the daily treatment frequency with once in two days (each other day) and once in three days. Mice treated with HDM admixed with diluent show clear eosinophilic airway inflammation (FIG. 2B). […] Moreover along this line also numbers of T-cells drop when treated with enoximone (FIG. 2B). […] Moreover the proportion of IL-4 producing T-cells is lower when enoximone is given less frequently than daily (FIG. 3).
# (A) Experimental HDM asthma design showing intratracheal sensitisation (s) of 10 μg HDM or PBS as control and challenge (c) with 10 μg HDM intra nasal. The following schedules were used diluent (d) (5 μl) during challenge (for 5 days ddddd), enoximone (5 μl 5 mg/ml) during challenge (for 5 days eeeee), enoximone once in two days (edede) or (deded) and once in three days enoximone (edded). (B) Total cells and quantification of flow cytometric analyses of eosinophils and CD4 T-cells in BAL of PBS treated (black bars) and several frequencies of enoximone treated mice (gray bars). Results are expressed as means±SEM.
# FIG. 3 Quantification of flow cytometric analyses of cytokine producing CD4 T-cells and proportion of IL-4 positive CD4 T-cells in BAL. Results are expressed as means±SEM. n=3-8 animals per group. Statistical evaluations were performed only between different treatments of groups (*p<0.05).
# [6] = metabolised to a less active sulfoxide, excreted via the kidneys; cited from earlier work
# [7] = oral or intratracheal enoximone
compound,measurement,setting,value
"CSc1ccc(C(=O)c2[nH]c(=O)[nH]c2C)cc1 [enoximone, 1,3-dihydro-4-methyl-5-[4-(methylthio)benzoyl]-2H-imidazol-2-on]",proliferation of CD4 positive T-cells (proportion of divided CD4 T-cells),[1],significantly reduced
same,neutrophil numbers in BAL,"[2]; 25 μg enoximone intratracheally, FIG. 6C, same pattern as eosinophils",the same dynamic is observed
same,ILC2 cell numbers in BAL,"[2]; 25 μg enoximone intratracheally, FIG. 6D, same pattern as eosinophils",the same dynamic is observed
same,"numbers of BAL eosinophils, HDM/diluent treated mice compared to enoximone treated mice","[2]; 25 μg enoximone solution admitted to 5 μg HDM, intratracheally, FIG. 6B",significantly higher
same,allergic airway inflammation in control mice,"[2]; PBS/enoximone (25 μg) control mice, no HDM",no signs of allergic airway inflammation
same,eosinophilic airway inflammation in control mice,"[2]; PBS/enoximone control mice, no HDM",no eosinophilic airway inflammation
same,"eosinophil numbers in BAL, HDM/PBS treated mice compared to enoximone treated mice","[2]; intratracheally (25 and 250 μg), treatment during challenge, FIG. 5B",significantly higher
same,"DCs, PBS treated allergy mice compared to enoximone treated mice",[2]; [7],significantly higher in the PBS treated allergy mice
same,"Neutrophils, PBS treated allergy mice compared to enoximone treated mice",[2]; [7],significantly higher in the PBS treated allergy mice
same,"T-cells, PBS treated allergy mice compared to enoximone treated mice",[2]; [7],significantly higher in the PBS treated allergy mice
same,ILC2 numbers in BAL,"[2]; oral or intratracheal enoximone, FIG. 5C",reduced
same,"eosinophil numbers in BAL, HDM/PBS treated mice compared to enoximone treated mice",[3],significantly higher
same,numbers of ILC2s in BAL,"[4]; days 15-19, FIG. 7C",significant reduction
same,numbers of T-cells in BAL,"[4]; days 15-19, FIG. 7D",significant reduction
same,numbers of macrophages in BAL,"[4]; days 15-19, FIG. 7E",significant reduction
same,eosinophil numbers in BAL,"[4]; days 15-19, started after the first 5 HDM challenges, FIG. 7B",strong significant reductions
same,numbers of T-cells in BAL,"[5]; 25 μg enoximone admixed with HDM challenge, FIG. 2B",drop
same,"number of cytokine (IL-4, IL-5, IL-13, IL-17 and IFNγ) producing T-cells in BAL","[5]; 25 μg enoximone admixed with HDM challenge, FIG. 3",drop in number
same,eosinophilic inflammation,"[5]; 25 μg enoximone admixed with HDM challenge, given every day, FIG. 2B",clear reduction
same,eosinophilic inflammation,"[5]; 25 μg enoximone admixed with HDM challenge, once in three days, FIG. 2B",clear reduction
same,eosinophilic inflammation,"[5]; 25 μg enoximone admixed with HDM challenge, once in two days (each other day), FIG. 2B",clear reduction
same,proportion of IL-4 producing T-cells,"[5]; enoximone given less frequently than daily, FIG. 3",lower
same,half life,[6],approximately 4 hours
